In US20260001871A1, “TRIAZOLE DERIVATIVES AS MODULATORS OF MAS-RELATED G-PROTEIN RECEPTOR D” (ESCIENT PHARMACEUTICALS, INC., priority 2022, published 2026):

Target: human MRGPRD (Homo sapiens, UniProt Q8TDS7)
Experiment: MRGPRD antagonist activity, IP-One HTRF assay in CHO cells stably expressing human MRGPRD (versus 100 μM β-Alanine agonist)
Assay type: cell-based
Experimental: Chinese Hamster Ovary (CHO) cells stably expressing human MRGPRD (Eurofins, San Diego CA) were plated in a 384-well plate at 20,000 cells per well in 12 μL of Optimem (Fisher Scientific 11-058-021). Plates were kept in the incubator at 37° C. overnight. Antagonists were solubilized at a concentration of 10 mM in DMSO, and the agonists were solubilized to stock concentrations of either 50 mM in H2O (β-Alanine) or 10 mM in DMSO (all others) and then diluted in assay buffer (final concentrations of 5.7 mM Tris-HCl, 43 mM NaCl, 50 mM LiCl, pH=8). The concentration of DMSO was normalized across the plate. Antagonists were added to the plate using a Tecan D300 Digital Dispenser at nanoliter/picoliter volumes and 2 μL of agonists in assay buffer were added to each well for a final assay volume of 14 μL. Plates were covered and incubated for 1 h at 37° C. and then for 1 h at room temperature. IP-1 standards and HTRF detection reagents were added according to an IP-One—Gq Kit purchased from Cisbio (part number 621PAPEJ) and incubated in the dark for 1 h at room temperature. Assay plates were read on either a Molecular Devices SpectraMax iD5 plate reader or a BMG ClarioStar plate reader. The HTRF ratio was calculated form the raw data and graphed using GraphPad Prism to calculate IC50 values. Data are expressed as average IC50 values and average percent antagonism calculated as a percent of the maximum efficacy response. For these studies, the variability of the data was assessed by determining the standard error of mean (SEM).
The activity ranges are denoted as follows: “+++++” denotes antagonist activity<100 nM; “++++” denotes antagonist activity between 100 and 500 nM; “+++” denotes activity between 500 and 1000 nM; “++” denotes activity between 1000 and 3000 nM; and “+” denotes activity>3000 nM.

Chain of human MRGPRD (Q8TDS7 whole entry): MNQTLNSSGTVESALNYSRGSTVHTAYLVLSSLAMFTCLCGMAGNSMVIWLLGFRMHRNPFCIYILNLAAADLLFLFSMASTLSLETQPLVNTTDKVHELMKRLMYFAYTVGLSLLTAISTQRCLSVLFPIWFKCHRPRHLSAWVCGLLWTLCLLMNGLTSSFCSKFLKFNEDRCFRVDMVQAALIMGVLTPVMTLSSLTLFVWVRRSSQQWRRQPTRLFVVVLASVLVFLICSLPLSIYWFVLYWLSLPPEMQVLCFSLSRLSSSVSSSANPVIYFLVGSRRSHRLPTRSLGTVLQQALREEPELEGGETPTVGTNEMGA

Compound	IC50 [µM]
Cc1cc(NC(=O)c2nnn(-c3cccc(-c4ccn(C5CC5)n4)c3)c2C2CC2)ccn1 [Compound 7-233]	0.1 to 0.5
CCc1cccc(-c2ccc(-n3nnc(C(=O)Nc4ccncc4)c3C3CC3)cc2)c1 [Compound 7-91]	0.1 to 0.5
N#CCc1ccccc1-c1ccc(-n2nnc(C(=O)Nc3ccncc3)c2C2CC2)cc1 [Compound 7-154]	0.5 to 1
CCn1nc(C)c(-c2ccc(-n3nnc(C(=O)NCc4cccnc4C)c3C3CC3)cc2)c1C [Compound 9-5]	< 0.1
CCc1cc(C)ccc1-n1nnc(C(=O)Nc2ccncc2)c1C1CC1 [Compound 5-6]	1 to 3
Cc1ccccc1-c1cccc(-n2nnc(C(=O)Nc3ccncc3)c2C2CC2)c1 [Compound 7-322]	1 to 3
Cc1oncc1-c1ccc(-n2nnc(C(=O)Nc3ccncc3)c2C2CC2)cc1 [Compound 7-45]	0.1 to 0.5
Cc1ccc(-n2nnc(C(=O)Nc3ccncc3)c2C(C)C)cc1 [Compound 1-19]	0.5 to 1
Cc1cc(NC(=O)c2nnn(C3CC=C(c4c(C)nn5ccccc45)CC3)c2C2CC2)ccn1 (stereo not drawn) [Compound 12-5]	0.5 to 1
Cc1cc(NC(=O)c2nnn(-c3ccc(-c4ccccc4)cc3)c2C2CC2)ccc1F [Compound 14-58]	1 to 3
CC(=O)c1cccc(-c2cc(-n3nnc(C(=O)Nc4ccncc4)c3C3CC3)ccc2C)c1 [Compound 7-259]	0.5 to 1
O=C(Nc1ccncc1)c1nnn(-c2ccc(-c3cnn(Cc4cccs4)c3)cc2)c1C1CC1 [Compound 7-29]	0.1 to 0.5
Cn1nc(-c2ccc(-n3nnc(C(=O)Nc4ccncc4)c3C3CC3)cc2)c2ccccc21 [Compound 7-164]	1 to 3
N#Cc1ccc(-c2ccc(-n3nnc(C(=O)Nc4ccncc4)c3C3CC3)cc2)c(F)c1 [Compound 7-54]	0.1 to 0.5
Cc1cc(NC(=O)c2nnn(-c3ccc(-c4ccc(C#N)nc4)cc3)c2C2CC2)ccn1 [Compound 7-38]	0.1 to 0.5
Cc1nn(C)c(C)c1-c1ccc(-n2nnc(C(=O)Nc3ccncc3)c2C(C)C)cc1 [Compound 17-10]	< 0.1
O=C(Nc1ccncc1)c1nnn(-c2ccc(-c3cc(C(F)(F)F)[nH]n3)cc2)c1C1CC1 [Compound 7-183]	1 to 3
O=C(Nc1ccncc1)c1nnn(-c2cccc(-c3cccc(-c4ccccc4)c3)c2)c1C1CC1 [Compound 7-328]	> 3
NC(=O)c1ccc(-c2ccc(-n3nnc(C(=O)NC4(c5cccnc5)CC4)c3C3CC3)cc2)cn1 [Compound 18-10]	1 to 3
O=C(Nc1ccncc1)c1nnn(-c2cccc(-c3ccc(F)cc3)c2)c1C1CC1 [Compound 7-311]	1 to 3
Cc1ccc(-c2ccc(-n3nnc(C(=O)Nc4ccncc4)c3C3CC3)cc2)cc1 [Compound 7-44]	0.1 to 0.5
CN(C)Cc1ccc(-c2ccc(-n3nnc(C(=O)Nc4ccncc4)c3C3CC3)cc2)cc1 [Compound 7-210]	1 to 3
CC(C)c1cccc(-c2ccc(-n3nnc(C(=O)Nc4ccncc4)c3C3CC3)cc2)c1 [Compound 7-37]	0.1 to 0.5
O=C(Nc1ccncc1)c1nnn(-c2ccc(-c3ccccc3F)cc2)c1C1CC1 [Compound 7-129]	0.5 to 1
Cc1cc(NC(=O)c2nnn(-c3ccc(-c4ccc(F)nc4)cc3)c2C2CC2)ccn1 [Compound 17-2]	0.1 to 0.5
Cc1ccc(CNC(=O)c2nnn(-c3ccc(-c4ccc(C#N)c(F)c4)cc3)c2C2CC2)cn1 [Compound 17-3, 1-(4′-cyano-3′-fluoro-[1,1′-biphenyl]-4-yl)-5-cyclopropyl-N-((6-methylpyridin-3-yl)methyl)-1H-1,2,3-triazole-4-carboxamide]	0.1 to 0.5
Cn1ncc2c(NC(=O)c3nnn(-c4ccc(-c5ccccc5)cc4)c3C3CC3)cccc21 [Compound 14-63]	1 to 3

Compound	IC50 [µM]
Cc1ccc(C2(NC(=O)c3nnn(-c4ccc(-c5ccc(C#N)cc5)cc4F)c3C3CC3)CC2)cn1 [Compound 7-227]	0.1 to 0.5
O=C(Nc1ccncc1)c1nnn(-c2cccc(-c3cnn(C4CCCC4)c3)c2)c1C1CC1 [Compound 7-266]	0.5 to 1
O=C(Nc1ccncc1)c1nnn(-c2ccc(-c3ccccc3O)cc2)c1C1CC1 [Compound 7-161]	0.5 to 1
O=C(Nc1ccncc1)c1nnn(-c2ccc(-c3nccs3)cc2)c1C1CC1 [Compound 7-177]	1 to 3
O=C(Nc1ccncc1)c1nnn(-c2ccc(-c3cccc(F)c3)cc2)c1C1CC1 [Compound 7-190]	1 to 3
CCc1cc(NC(=O)c2nnn(-c3ccc(-c4c(C)nn(-c5ccccc5)c4C)cc3)c2C2CC2)ccn1 [Compound 9-3]	< 0.1
CCc1ncccc1C1(NC(=O)c2nnn(-c3ccc(-c4ccc(C#N)cc4)cc3)c2C2CC2)CC1 [Compound 15-18]	1 to 3
COc1cncc(C2(NC(=O)c3nnn(-c4ccc(-c5ccc(C#N)cc5)cc4)c3C3CC3)CC2)c1 [Compound 18-6]	1 to 3
Cc1ccc(CNC(=O)c2nnn(-c3ccc(-c4cnn(Cc5ccccc5)c4)cc3)c2C2CC2)cn1 [Compound 7-108]	0.1 to 0.5
N#Cc1ccc(-c2ccc(-n3nnc(C(=O)NC4(c5cccnc5)CC4)c3C3CC3)cc2)cn1 [Compound 18-8]	1 to 3
Cc1cc(-n2nnc(C(=O)Nc3ccncc3)c2C2CC2)ccc1-c1c(C)nn(C)c1C [Compound 7-271]	0.5 to 1
COc1cc(NC(=O)c2nnn(-c3ccc(-c4ccccc4)cc3)c2C2CC2)c2cn[nH]c2c1 [Compound 14-84]	> 3
COCn1cc(-c2cccc(-n3nnc(C(=O)Nc4ccncc4)c3C3CC3)c2)cn1 [Compound 7-301]	1 to 3
COc1ccc(C2(NC(=O)c3nnn(-c4ccc(-c5ccc(C#N)cc5)cc4)c3C(C)C)CC2)cn1 [Compound 18-24]	0.5 to 1
CC(=O)c1cccc(-c2ccc(-n3nnc(C(=O)Nc4ccncc4)c3C3CC3)cc2)c1 [Compound 7-80]	0.1 to 0.5
O=C(Nc1ccncc1)c1nnn(-c2ccc(-c3ccccc3C(F)(F)F)cc2)c1C1CC1 [Compound 7-169]	1 to 3
Cc1n[nH]c2ncnc(NC(=O)c3nnn(-c4ccc(-c5ccccc5)cc4)c3C3CC3)c12 [Compound 14-25]	0.5 to 1
N#CCc1ccc(-c2ccc(-n3nnc(C(=O)NC4(c5cccnc5)CC4)c3C3CC3)cc2)cc1 [Compound 18-9]	1 to 3
CC(C)c1c(C(=O)Nc2ccncc2)nnn1-c1ccc(-c2cnn(C)c2)cc1 [Compound 17-27]	0.5 to 1
COc1cccc(-c2cccc(-n3nnc(C(=O)Nc4ccncc4)c3C3CC3)c2)c1 [Compound 7-292]	1 to 3
O=C(NC1(c2ccccc2)CCC1)c1nnn(-c2ccc(-c3ccccc3)cc2)c1C1CC1 [Compound 14-6]	> 3
O=C(Nc1cnn(C(F)(F)F)c1)c1nnn(-c2ccc(-c3ccccc3)cc2)c1C1CC1 [Compound 14-80]	> 3
Cc1ccc(-c2ccc(-n3nnc(C(=O)Nc4ccncc4)c3C3CC3)cc2)s1 [Compound 7-182]	1 to 3
O=C(NCC1CCCO1)c1nnn(-c2ccc(-c3ccccc3)cc2)c1C1CC1 (stereo not drawn) [Compound 14-7]	> 3
N#CCc1ccc(-c2cccc(-n3nnc(C(=O)NC4(c5cccnc5)CC4)c3C3CC3)c2)cc1 [Compound 18-21]	1 to 3
Cc1ccc(CNC(=O)c2nnn(-c3ccc(-c4c(C)nn(C)c4F)cc3)c2C2CC2)cn1 [Compound 8-3]	0.1 to 0.5
O=C(Nc1ccncc1)c1nnn(-c2ccc(-c3cccc(Cl)c3)cc2)c1C1CC1 [Compound 7-101]	0.1 to 0.5
